Reference: patent US20090171621A1, “MEASURING THE DISTANCE BETWEEN DEVICES” (KONINKLIJKE PHILIPS ELECTRONICS, N.V., priority 2004, published 2009)

Key:
egg-laying chickens [1] = settings: previous art, cited from earlier work
egg-laying chickens [2] = settings: previous art, cited from earlier work; remark: listed apart in the source
ISA brown hens [3] = assay: Egg cholesterol analysis (yolk weight, yolk cholesterol by gas chromatography) of hens fed supplemented diet; assay type: in vivo; settings: for Cholesterol content / Cholesterol content change / Cholesterol concentration: 6 weeks; for Cholesterol content change: compared to control; for Cholesterol concentration: per gram of yolk; for Total yolk/egg cholesterol content, percentage change (reduction) compared to control: 0.03% in feed; for Egg york weight: 6 weeks (Table 5)
Description: (§1) Healthy ISA brown hens, 45-week old, were assigned randomly to each dietary group (control group, 8 birds; experimental group, 6 birds each). Each bird was placed in an individual cage in an environmentally controlled room (25° C., 50% relative humidity, 16L:8D). The hens were allowed for 2 weeks in which to adapt to the feed with no additives and the housing. Control birds were fed a commercial diet based on corn and soybean meal (Table 1), while birds in experimental groups were fed diets supplemented with 0.003 or 0.03% of compactin (Sigma Aldrich Korea) for 6 weeks. Feed and water were provided ad libitum throughout the experiment. Feed consumption, egg production and egg weight were recorded daily. Egg production was expressed as percent hen day production; (100×number of eggs laid)/(number of hens×days).
For egg cholesterol analysis, eggs from each bird were collected and egg yolk was separated, weighed, and sampled for analysis. Lipids from eggs were extracted by the method of Folch et al. (1957). Briefly, one gram of sample was saponified with 3 mL of 33% KOH and incubated with 30 mL of 95% methanol in a 65° C. water bath for 90 min. After saponification, 10 mL hexane and 3 mL water were added, followed by vigorous shaking for 10 min. 5α-cholestan (Sigma C-8300) was used as an internal standard. Cholesterol content was determined by a gas chromatography (Shimadzu, Japan) using column VB-1 (30 m×0.25 mm×0.25 μm, VICI Inc.) with a split ratio of 100:1 and nitrogen as carrier gas for a column flow rate of 0.54 mL/min. Injector, column, and detector temperatures were 275° C., 290° C., and 340° C., respectively.
Egg production and yolk cholesterol analysis was performed with 0.003 and 0.03% pravastatin administered group with the same procedure as described in Example 1 above. Hen performance was investigated by measuring egg weight and egg production as in Table 4. […]

[4] = clinical trials / prescription drug development; cited from earlier work
ISA brown hens [5] = assay: Egg laying performance of hens fed supplemented diet (egg weight, egg production); assay type: in vivo; settings: for Egg weight / Egg production: 6 weeks; for Egg production: percent hen day production
Description: as §1
The effects of 0.003% or 0.03% compactin on the laying performance of 45-week old ISA brown hens were investigated (Table 2). Egg weight was maintained at more than 60 grams after 6 weeks of oral administrations of compactin at both doses. […] Maintenance of laying performance with compactin feeding is of contrast to the previous art in which atorvastatin reduced egg production down to 70% after feeding for 5-week.
Egg production and yolk cholesterol analysis was performed with 0.003 and 0.03% pravastatin administered group with the same procedure as described in Example 1 above. Hen performance was investigated by measuring egg weight and egg production as in Table 4. Pravastatin group had maintained above 80% of egg production rate after 6-week administration, same as control.
Egg production and yolk cholesterol analysis was performed with the same procedure as described in Example 1 above except 0.5 and 1% of Streptomyces cell precipitates and bioconversion reaction broth were administered instead of compactin. Hen performance was investigated by measuring egg weight and egg production as in Table 6.

Row | Molecule | Cholesterol content (ISA brown hens [3]; 0.003 weight % added to feed) | Cholesterol content change (ISA brown hens [3]; 0.003 weight % added to feed) | Cholesterol concentration (ISA brown hens [3]; 0.003 weight % added to feed) | Total yolk/egg cholesterol content, percentage change (reduction) compared to control (ISA brown hens [3]; given without sign) | Cholesterol content (ISA brown hens [3]; 0.03 weight % added to feed) | Cholesterol content change (ISA brown hens [3]; 0.03 weight % added to feed) | Cholesterol concentration (ISA brown hens [3]; 0.03 weight % added to feed) | Toxicity [4] | further results
1 | CC(C)c1c(C(=O)Nc2ccccc2)c(-c2ccccc2)c(-c2ccc(F)cc2)n1CC[C@@H](O)C[C@@H](O)CC(=O)O [atorvastatin] |  |  |  |  |  |  |  |  | Egg production reduced down to (egg-laying chickens [1]; after feeding for 5-week): 70%; Decrease of egg production rate compared to control (egg-laying chickens [1]): more than 15%; Effect of oral administration on egg production (egg-laying chickens [1]): decrease egg production; Cholesterol-lowering effect in eggs (egg-laying chickens [2]; 0.03-0.06% fed for 5 weeks): satisfactory
2 | CC[C@H](C)C(=O)O[C@H]1C[C@@H](C)C=C2C=C[C@H](C)[C@H](CC[C@@H]3C[C@@H](O)CC(=O)O3)[C@H]21 [lovastatin] |  |  |  |  |  |  |  |  | Reduction of egg cholesterol level (egg-laying chickens [2]; at its high dose): 3-6%
3 | CC[C@H](C)C(=O)O[C@H]1CCC=C2C=C[C@H](C)[C@H](CC[C@@H]3C[C@@H](O)CC(=O)O3)[C@H]21 [Compactin, compactin] | 185 mg/egg | −16% | 11.2 ± 0.3 mg/g | 29% | 156 mg/egg | −29% | 10.5 ± 0.2 mg/g | serious toxicity | Total yolk cholesterol content, percentage change (reduction) compared to control (ISA brown hens [3]; 0.003% in feed, given without sign): 16%; Egg production compared to the control group (ISA brown hens [5]; in vivo): did not cause any difference in egg production
4 | pravastatin | 207 mg/egg | −6% | 12.5 ± 0.5 mg/g | 24% | 167 mg/egg | −24% | 10.4 ± 0.5 mg/g | not toxic | Egg york weight (ISA brown hens [3]; 0.003 weight % added to feed): 16.5 ± 0.4 g; Egg york weight (ISA brown hens [3]; 0.03 weight % added to feed): 16.1 ± 0.4 g; Egg weight (ISA brown hens [5]; 0.003 weight % added to feed): 62.5 ± 0.3 g; Egg production (ISA brown hens [5]; 0.003 weight % added to feed): 84%; Egg weight (ISA brown hens [5]; 0.03 weight % added to feed): 58.8 ± 0.7 g; Egg production (ISA brown hens [5]; 0.03 weight % added to feed): 82%; Egg production rate maintained (ISA brown hens [5]; after 6-week administration, 0.003 and 0.03%): above 80%
